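Results reflect a 48-hour exposure of cells in 96-well plates to compound at five concentrations. The concentration for 50% growth inhibition is given as GI50. TGI denotes the concentration required for complete inhibition of growth.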
Legend:
Experiment in all cases: DTP human tumour cell line panel, 48 h
CCRF-CEM leukemia = system: CCRF-CEM leukemia
EKVX NSCLC = system: EKVX NSCLC
IGROV1 ovarian = system: IGROV1 ovarian
KM12 colon = system: KM12 colon
M14 melanoma = system: M14 melanoma
SK-MEL-5 melanoma = system: SK-MEL-5 melanoma
SN12C renal = system: SN12C renal
SNB-19 CNS = system: SNB-19 CNS
U251 CNS = system: U251 CNS
UACC-257 melanoma = system: UACC-257 melanoma
MALME-3M melanoma = system: MALME-3M melanoma

| SMILES | TGI (CCRF-CEM leukemia) [µM] | TGI (EKVX NSCLC) [µM] | TGI (IGROV1 ovarian) [µM] | TGI (KM12 colon) [µM] | TGI (M14 melanoma) [µM] | TGI (SK-MEL-5 melanoma) [µM] | TGI (SN12C renal) [µM] | TGI (SNB-19 CNS) [µM] | TGI (U251 CNS) [µM] | TGI (UACC-257 melanoma) [µM] | TGI (MALME-3M melanoma) [µM] | GI50 (EKVX NSCLC) [µM] | GI50 (IGROV1 ovarian) [µM] | GI50 (KM12 colon) [µM] | GI50 (MALME-3M melanoma) [µM] | GI50 (SK-MEL-5 melanoma) [µM] | GI50 (SN12C renal) [µM] | GI50 (SNB-19 CNS) [µM] | GI50 (U251 CNS) [µM] | GI50 (UACC-257 melanoma) [µM] |
| --- | --- | --- | --- | --- | --- | --- | --- | --- | --- | --- | --- | --- | --- | --- | --- | --- | --- | --- | --- | --- |
| Cc1ccc(S(=O)(=O)N2c3ccccc3[C@H]3CCc4c([nH]c5ccccc45)[C@H]32)cc1 | > 100 | > 100 | > 100 | > 100 | > 100 | > 100 | > 100 | > 100 | > 100 | > 100 |  |  |  |  |  |  |  |  |  |  |
| CC(C)OC(=O)Nc1cccc(Cl)c1 | > 100 | > 100 | > 100 | > 100 | > 100 | > 100 | > 100 | > 100 | > 100 | > 100 |  |  |  |  |  |  |  |  |  |  |
| CC1=C(C#N)C23C(=O)c4ccccc4C(O)=C2C(=O)C=CC3(O)N1 (stereo unspecified) | > 100 | > 100 | 17.2 | 38.6 | 13 | 2.75 | 6.19 | 25.5 | > 100 | 4.56 | 3.86 |  |  |  |  |  |  |  |  |  |
| CO[C@H]1ON=C(c2c(C)cc(C)cc2C)[C@@H]1C1(c2ccccc2)ON=C(c2c(C)cc(C)cc2C)O1 (stereo partly specified) | > 100 | > 100 | > 100 | > 100 |  |  | > 100 | > 100 | > 100 | > 100 | > 100 |  |  |  |  |  |  |  |  |  |
| CN1C(=O)CN2C(Cl)(Cl)C2(c2ccccc2F)c2cc([N+](=O)[O-])ccc21 (stereo unspecified) | > 100 | > 100 | > 100 | > 100 | > 100 | > 100 | 80.7 |  | > 100 | > 100 | 95.8 |  |  |  |  |  |  |  |  |  |
| Cn1cc(-c2csc(-c3cn(C)c4ccc(Br)cc34)n2)c2cnccc21 |  | 3.48 | 3.28 | 3.69 |  | 3.09 | 2.92 | 3.26 | 3.27 | 3.63 | 3.48 | 1.86 | 1.76 | 1.97 | 1.95 | 1.7 | 1.53 | 1.73 | 1.78 | 1.95 |
| COc1ccc(CC2c3cc(OC)c(OC)c(OC)c3CC[N+]2(C)C)cc1Oc1ccc(CC2c3cc4c(c(OC)c3CC[N+]2(C)C)OCO4)cc1 (stereo unspecified) | > 100 | > 100 | > 100 | > 100 | > 100 | > 100 | > 100 | > 100 | > 100 | > 100 | > 100 |  |  |  |  |  |  |  |  |  |
| CC(=O)OCc1ccc2oc(=O)c(C(=O)Oc3cccc(Cl)c3)cc2c1 | > 100 | > 100 | > 100 | > 100 | > 100 | > 100 | > 100 | > 100 | > 100 | > 100 | > 100 |  |  |  |  |  |  |  |  |  |
| CCCCC(C(=O)N/N=C/c1ccc([N+](=O)[O-])o1)C(=O)N/N=C/c1ccc([N+](=O)[O-])o1 | 5.58 | 26.6 | 4.22 | 15.4 | 13.6 | 14.6 | 12.3 | 13.7 | 10.3 |  | 7.93 |  |  |  |  |  |  |  |  |  |
| [O-]c1c[n+](CCCC[n+]2cc([O-])on2)no1 | > 100 | > 100 | > 100 | > 100 | > 100 | > 100 | > 100 | > 100 | > 100 | > 100 | > 100 |  |  |  |  |  |  |  |  |  |
| c1ccc(CSC2(SCc3ccccc3)CCCC2)cc1 | > 10 | > 10 | > 10 | > 10 | > 10 | > 10 | > 10 | > 10 | > 10 |  | > 10 |  |  |  |  |  |  |  |  |  |
| c1ccc(CSc2ccccc2CN2CCN(Cc3ccccc3SCc3ccccc3)CCN(Cc3ccccc3SCc3ccccc3)CC2)cc1 | > 100 | 3.39 |  | 5.26 | 2.93 | 2.95 | 3.36 | 5.19 | 2.08 | 2.94 | 3.56 |  |  |  |  |  |  |  |  |  |
| C1CCC(OCc2nnn3c2CCC3)OC1 (stereo unspecified) | > 100 | > 100 | > 100 | > 100 | > 100 | > 100 | > 100 |  | > 100 | > 100 | > 100 |  |  |  |  |  |  |  |  |  |

From PubChem BioAssay (NCI)
